Test results taken from PubChem BioAssay AID1963843 (Molecular Pharmacology Branch, DTP, NCI, 2024).

System: 616215-338-R-J1-PDC complex spheroid viability
Experiment: Anticancer human tumor 616215-338-R-J1-PDC patient-derived colon adenocarcinoma cell line growth inhibition [POLQ]
Conditions: for IC50: curve of first compound; for viability, T/C: stronger effect = lower value
Protocol: Multicellular complex tumor spheroid response to Polymerase (POL) inhibitors (novobiocin, ART-558, RP6685) in combination with a variety of drugs and investigational agents in selected tumor cell lines
The POL inhibitors (novobiocin, ART-558, and RP6685) were evaluated both individually and in combination with standard of care and investigational anticancer small molecules within a complex spheroid model of solid tumors. . Complex spheroids include a stromal component modeled by human endothelial cells (HUVEC) and fibroblasts modeled by human mesenchymal stem cells (MSCs). The concentration ranges selected for each drug and investigational agent were based upon clinically achievable concentrations if the clinical Cmax of the agent was known.
Compounds. The drugs and investigational agents: novobiocin (NSC847541), ART-558 (NSC835418), RP-6685 (NSC848927), peposertib (NSC802822), ceralasertib (NSC780249), elimusertib (NSC800525), camonsertib (NSC841442), AZD-1390 (NSC803789), olaparib (NSC753686), talazoparib (NSC767125), rucaparib (NSC756644), sotorasib (NSC818433), MRTX-1133 (NSC836407), SN-38 (NSC673596), topotecan (NSC609699), epotoside (NSC141540), doxorubicin (NSC123127), gemcitabine (NSC613327), 5-fluorouracil (NSC19893), paclitaxel (NSC125973), vemurafenib (NSC761431), MSA-2 (NSC828583), SN-011 (NSC837082), adavosertib (NSC754352), prexasertib (NSC758257), carboplatin (NSC241240) and oxaliplatin (NSC266046), were obtained from the National Cancer Institute (NCI) Developmental Therapeutics Program Chemical Repository (21). The FDA-approved anticancer drug set is available from the Developmental Therapeutics Program at https://dtp.cancer.gov/organization/dscb/obtaining/. […] The stock solutions were prepared in dimethyl sulfoxide (DMSO, Sigma-Aldrich, St. Louis, MO, cat. D2650), except for the platinum compounds which were prepared in saline (Quality Biological, Gaithersburg, MD, cat. 114-055-101), at 800-fold the tested concentration and stored at -70 degrees C prior to their use. All drugs and investigational agents were tested over a range starting from a high concentration at or near the clinical Cmax and decreasing in half-log increments. If the clinical Cmax for an agent had not been determined, the highest concentration tested was 10 microM, except for SN-38, which was tested at a high concentration of 1 microM.
Cell Culture. All cells were maintained in an incubator at 37 degrees C and 5% CO2 with 95% humidity. The PDC lines were cultured according to standard operating procedures established by the NCI PDMR (https://pdmr.cancer.gov). Table 3 of the manuscript, lists the cell lines along with the number of the three cell types plated to form the mct-spheroids and media for tumor cell growth. After thawing, all PDC lines, except 997537-175-T-J1-PDC and 415267-285-R-J2-PDC, were cultured in Matrigel-coated flasks prepared with a working solution of 1X Ham's F-12 nutrient mix, without supplementation (Thermo Fisher Scientific, cat. 11765054), 100 U/mL penicillin-streptomycin (Thermo Fisher Scientific, cat. 15140122), and 2.5% Matrigel (Corning Inc., Corning, NY, cat. 354248) for the first three passages. The two PDC lines 997537-175-T-J1-PDC and 415267-285-R-J2-PDC were cultured on uncoated flasks. The 857933-349-R-J2-PDC line was cultured in 6C/Colon 1B media containing advanced DMEM/F-12 (Thermo Fisher Scientific, cat. 12634028), 10 mM HEPES (Thermo Fisher Scientific, cat. 15630080), 1X GlutaMAX supplement (Thermo Fisher Scientific, cat. 35050061), 0.1 mg/mL primocin (InvivoGen, San Diego, CA, cat. ant-pm-2), 10% defined fetal bovine serum, heat inactivated (HyClone Laboratories Inc., Logan, UT, cat. SH30070.03HI), 50% L-WRN conditioned media (ATCC, cat. CRL-3276), 1.25 mM N-Acetyl-L-cysteine (Sigma-Aldrich, cat. A9165), 10 mM nicotinamide (Sigma-Aldrich, cat. N0636), 1X B-27 supplement (Thermo Fisher Scientific, cat. 17504044), 1X N-2 supplement (Thermo Fisher Scientific, cat. […]

[1] = second compound 0.0316 µM, first compound 0.0316 µM
[2] = second compound 0.0316 µM, first compound 0.1 µM
[3] = second compound 0.0316 µM, first compound 0.316 µM
[4] = second compound 0.0316 µM, first compound 1 µM
[5] = second compound 0.0316 µM, first compound 3.16 µM
[6] = second compound 0.0316 µM, first compound 10 µM
[7] = second compound 0.1 µM, first compound 0.0316 µM
[8] = second compound 0.1 µM, first compound 0.1 µM
[9] = second compound 0.1 µM, first compound 0.316 µM
[10] = second compound 0.1 µM, first compound 1 µM
[11] = second compound 0.1 µM, first compound 3.16 µM
[12] = second compound 0.1 µM, first compound 10 µM
[13] = second compound 0.316 µM, first compound 0.0316 µM
[14] = second compound 0.316 µM, first compound 0.1 µM
[15] = second compound 0.316 µM, first compound 0.316 µM
[16] = second compound 0.316 µM, first compound 1 µM
[17] = second compound 0.316 µM, first compound 3.16 µM
[18] = second compound 0.316 µM, first compound 10 µM
[19] = second compound 1 µM, first compound 0.0316 µM
[20] = second compound 1 µM, first compound 0.1 µM
[21] = second compound 1 µM, first compound 0.316 µM
[22] = second compound 1 µM, first compound 1 µM
[23] = second compound 1 µM, first compound 3.16 µM
[24] = second compound 1 µM, first compound 10 µM
[25] = second compound 3.16 µM, first compound 0.0316 µM
[26] = second compound 3.16 µM, first compound 0.1 µM
[27] = second compound 3.16 µM, first compound 0.316 µM
[28] = second compound 3.16 µM, first compound 1 µM
[29] = second compound 3.16 µM, first compound 3.16 µM
[30] = second compound 3.16 µM, first compound 10 µM
[31] = second compound 10 µM, first compound 0.0316 µM
[32] = second compound 10 µM, first compound 0.1 µM
[33] = second compound 10 µM, first compound 0.316 µM
[34] = second compound 10 µM, first compound 1 µM
[35] = second compound 10 µM, first compound 3.16 µM
[36] = second compound 10 µM, first compound 10 µM
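Note: spheroids exposed to compounds for one week before readout.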
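Throughout, for viability, T/C: percent viability relative to DMSO vehicle wells taken as 100%.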

C=CC(=O)N1CCN(c2nc(=O)n(-c3c(C)ccnc3C(C)C)c3nc(-c4c(O)cccc4F)c(F)cc23)C(C)C1 (centres undefined) + COC1C(OC(N)=O)C(O)C(Oc2ccc3c(O)c(NC(=O)c4ccc(O)c(CC=C(C)C)c4)c(=O)oc3c2C)OC1(C)C
IC50 (second compound 0.0316 µM): > 10 µM | IC50 (second compound 0.1 µM): > 10 µM | IC50 (second compound 0.316 µM): > 10 µM | IC50 (second compound 1 µM): > 10 µM | IC50 (second compound 3.16 µM): > 10 µM | IC50 (second compound 10 µM): > 10 µM | viability, T/C [1]: 105% | viability, T/C [2]: 99.7% | viability, T/C [3]: 98.4% | viability, T/C [4]: 108% | viability, T/C [5]: 113% | viability, T/C [6]: 106% | viability, T/C [7]: 98.4% | viability, T/C [8]: 98.1% | viability, T/C [9]: 98% | viability, T/C [10]: 93.3% | viability, T/C [11]: 104% | viability, T/C [12]: 87.8% | viability, T/C [13]: 104% | viability, T/C [14]: 99.7% | viability, T/C [15]: 99.6% | viability, T/C [16]: 95% | viability, T/C [17]: 107% | viability, T/C [18]: 95.8% | viability, T/C [19]: 96.9% | viability, T/C [20]: 95.8% | viability, T/C [21]: 94% | viability, T/C [22]: 101% | viability, T/C [23]: 105% | viability, T/C [24]: 90.6% | viability, T/C [25]: 94.8% | viability, T/C [26]: 103% | viability, T/C [27]: 94.3% | viability, T/C [28]: 95% | viability, T/C [29]: 104% | viability, T/C [30]: 70.4% | viability, T/C [31]: 99.7% | viability, T/C [32]: 94.3% | viability, T/C [33]: 98% | viability, T/C [34]: 102% | viability, T/C [35]: 102% | viability, T/C [36]: 83.6%

COc1cc2cc(C(=O)CCC(=O)O)sc2cc1OC + COC1C(OC(N)=O)C(O)C(Oc2ccc3c(O)c(NC(=O)c4ccc(O)c(CC=C(C)C)c4)c(=O)oc3c2C)OC1(C)C
IC50 (second compound 0.0316 µM): > 10 µM | IC50 (second compound 0.1 µM): > 10 µM | IC50 (second compound 0.316 µM): > 10 µM | IC50 (second compound 1 µM): > 10 µM | IC50 (second compound 3.16 µM): > 10 µM | IC50 (second compound 10 µM): > 10 µM | viability, T/C [1]: 110% | viability, T/C [2]: 103% | viability, T/C [3]: 102% | viability, T/C [4]: 105% | viability, T/C [5]: 102% | viability, T/C [6]: 113% | viability, T/C [7]: 95.4% | viability, T/C [8]: 101% | viability, T/C [9]: 109% | viability, T/C [10]: 97.7% | viability, T/C [11]: 103% | viability, T/C [12]: 97.2% | viability, T/C [13]: 115% | viability, T/C [14]: 94.9% | viability, T/C [15]: 107% | viability, T/C [16]: 95.1% | viability, T/C [17]: 101% | viability, T/C [18]: 101% | viability, T/C [19]: 102% | viability, T/C [20]: 88.2% | viability, T/C [21]: 106% | viability, T/C [22]: 98.7% | viability, T/C [23]: 99.7% | viability, T/C [24]: 106% | viability, T/C [25]: 107% | viability, T/C [26]: 99.9% | viability, T/C [27]: 109% | viability, T/C [28]: 102% | viability, T/C [29]: 99.6% | viability, T/C [30]: 113% | viability, T/C [31]: 109% | viability, T/C [32]: 91.7% | viability, T/C [33]: 102% | viability, T/C [34]: 104% | viability, T/C [35]: 97% | viability, T/C [36]: 102%
